The record followed here is PubChem BioAssay (NCI).

Several values for one entry are separate records, joined by “and”; a condition that tells them apart may be missing. Equal values may be shown once.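 All cell lines were grown in 96-well plates and treated with compound for 48 hours. GI50 = concentration required for 50% inhibition of growth. TGI marks complete inhibition of growth.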

Some test systems named below: TK-10 renal; HOP-62 NSCLC; CCRF-CEM leukemia; HL-60(TB) leukemia; SK-MEL-28 melanoma; RPMI-8226 leukemia; SW-620 colon; HOP-92 NSCLC; OVCAR-5 ovarian; OVCAR-4 ovarian.
Assay in all cases: NCI anticancer screen, dose series, 48 h

Regarding `Cc1cc(=O)c2c(O)c3c(O)cc(O)c4c5c(O)cc(O)c6c(O)c7c(=O)cc(C)c8c1c2c(c34)c(c65)c78`, the TGI with TK-10 renal is above 100 µM; in the test with HOP-62 NSCLC, above 73 µM; in the test with CCRF-CEM leukemia, above 100 µM; with HL-60(TB) leukemia it was > 100 µM and 30.7 µM; with SK-MEL-28 melanoma, above 100 µM; in the test with RPMI-8226 leukemia, above 100 µM. In addition, the TGI in the test on SW-620 colon is above 100 µM; in the test with HOP-92 NSCLC, > 100 µM and 47.4 µM; in the test with OVCAR-5 ovarian, > 100 µM and 45.3 µM; in the test with OVCAR-4 ovarian, above 100 µM. Moreover, the GI50 with CCRF-CEM leukemia is > 100 µM and 22.2 µM; with HL-60(TB) leukemia it was 11.7 µM; in the test with RPMI-8226 leukemia, > 100 µM and 22.3 µM; in the test with HOP-92 NSCLC it was 36.7 µM and 15.1 µM; with OVCAR-5 ovarian, > 100 µM and 24.7 µM.

For `C=C(C)CC1=C(C(=S)NCCO[Si](C)(C)C(C)(C)C)C(OCC)(OCC)C1=O`, the TGI was 34.8 µM with TK-10 renal; 34.3 µM in the test on HOP-62 NSCLC; above 100 µM in the test with CCRF-CEM leukemia; above 100 µM in the test on HL-60(TB) leukemia; 34.6 µM in the test on SK-MEL-28 melanoma; 47 µM with SW-620 colon. Further, the TGI in the test with HOP-92 NSCLC was above 100 µM; in the test on OVCAR-5 ovarian, 28.5 µM; in the test on OVCAR-4 ovarian, 34.3 µM.

As for `Sc1nnc(-c2ccccc2Nc2ccccc2-c2nnc(S)n2-c2ccccc2)n1-c1ccccc1`, the TGI in the test with TK-10 renal was above 100 µM; with HOP-62 NSCLC, above 100 µM; in the test with CCRF-CEM leukemia, above 100 µM; with HL-60(TB) leukemia, 67.1 µM; in the test with SK-MEL-28 melanoma, 44.7 µM; in the test on RPMI-8226 leukemia it was 48 µM. Further, the TGI with SW-620 colon was 81.9 µM; in the test with HOP-92 NSCLC, 48.2 µM; in the test with OVCAR-5 ovarian, above 100 µM; in the test on OVCAR-4 ovarian, above 100 µM.

For `FC1CCN(C2(c3cccs3)CCCCC2)CC1`, the TGI in the test on TK-10 renal, in the test with HOP-62 NSCLC, in the test on HL-60(TB) leukemia, in the test with SK-MEL-28 melanoma, with RPMI-8226 leukemia and in the test with SW-620 colon was above 100 µM each time. The TGI in the test on HOP-92 NSCLC, in the test on OVCAR-5 ovarian and in the test on OVCAR-4 ovarian was above 100 µM throughout.

`N=C(N)n1[nH]c2c(c1=O)CCC2`: the TGI with TK-10 renal, with HOP-62 NSCLC, with CCRF-CEM leukemia, in the test on HL-60(TB) leukemia, with SK-MEL-28 melanoma and with SW-620 colon was above 100 µM in each case. Moreover, the TGI in the test on HOP-92 NSCLC, with OVCAR-5 ovarian and in the test with OVCAR-4 ovarian was above 100 µM throughout.

Regarding `CC1CCC2c3c([nH]c4ccccc34)C3C(=O)N(C4CCCCC4)C(=O)C3C2C1` (stereo not given), the TGI in the test with TK-10 renal was 27.1 µM; in the test on HOP-62 NSCLC it was 32.7 µM; in the test with CCRF-CEM leukemia, above 100 µM; in the test with HL-60(TB) leukemia it was above 100 µM; with SK-MEL-28 melanoma, 34.1 µM; with RPMI-8226 leukemia it was above 100 µM. The TGI is above 100 µM in the test on SW-620 colon, 44.9 µM in the test with HOP-92 NSCLC and above 100 µM in the test with OVCAR-5 ovarian.

As for `C[C@]12CCC(=O)C=C1CC[C@@H]1[C@@H]2C(=O)C[C@@]2(C)[C@H]1CC[C@]2(O)C(=O)CO`, the TGI with TK-10 renal, in the test on CCRF-CEM leukemia, with HL-60(TB) leukemia, in the test with SK-MEL-28 melanoma, in the test with RPMI-8226 leukemia and in the test on SW-620 colon was above 100 µM in each case. Moreover, the TGI in the test with HOP-92 NSCLC and in the test on OVCAR-4 ovarian was above 100 µM throughout.

As to `C1OCN2c3nonc3N3COCN4c5nonc5N1C2C43` (stereo not given), the TGI with TK-10 renal, with CCRF-CEM leukemia, with HL-60(TB) leukemia, with SK-MEL-28 melanoma, in the test on RPMI-8226 leukemia and in the test with SW-620 colon was above 100 µM each time. Moreover, the TGI in the test with HOP-92 NSCLC, with OVCAR-5 ovarian and with OVCAR-4 ovarian was above 100 µM throughout.

For the molecule `ClCc1c(-c2ccccc2)nn(-c2ccccc2)c1CCl`, the TGI in the test with TK-10 renal was 29.2 µM; in the test with HL-60(TB) leukemia, 6.13 µM; in the test on SK-MEL-28 melanoma, 32.3 µM; with RPMI-8226 leukemia it was 7.86 µM; with SW-620 colon it was 5.21 µM; in the test on HOP-92 NSCLC, 7.69 µM. Besides, the TGI came to 35 µM with OVCAR-5 ovarian and 3.83 µM in the test with OVCAR-4 ovarian.

`CCOC(=O)/C=C(/C(=O)OCC)n1c(=O)c(C)cn(C2CC(N=[N+]=[N-])C(CO)O2)c1=O` (stereo not given): the TGI in the test with TK-10 renal was above 100 µM; in the test with HOP-62 NSCLC, above 100 µM; in the test on HL-60(TB) leukemia, 5.18 µM; in the test with SK-MEL-28 melanoma it was 84.6 µM; in the test on RPMI-8226 leukemia, 49 µM; in the test on SW-620 colon it was 34.1 µM. For the same molecule, the TGI was 76.6 µM in the test with HOP-92 NSCLC, above 100 µM in the test on OVCAR-5 ovarian and above 100 µM with OVCAR-4 ovarian.

Regarding `Cc1ccc(S(=O)(=Nc2ccccc2)C(C(C)C)C(C)(C)Cl)cc1` (stereo not given), the TGI was above 50 µM with TK-10 renal; above 50 µM in the test on HOP-62 NSCLC; above 50 µM in the test on CCRF-CEM leukemia; 22 µM with HL-60(TB) leukemia; above 50 µM in the test on RPMI-8226 leukemia; above 50 µM in the test on SW-620 colon. Besides, the TGI in the test on HOP-92 NSCLC, in the test with OVCAR-5 ovarian and in the test on OVCAR-4 ovarian was above 50 µM throughout.

With `O=C(NN=C1CCCCC1)Nc1ccccc1Cl`, the TGI in the test with TK-10 renal, with CCRF-CEM leukemia, in the test on HL-60(TB) leukemia, with SK-MEL-28 melanoma, with RPMI-8226 leukemia and in the test on SW-620 colon was above 100 µM each time. For the same molecule, the TGI with HOP-92 NSCLC was 94.3 µM; in the test on OVCAR-5 ovarian, above 100 µM; with OVCAR-4 ovarian, above 100 µM.

In the case of `CC(NC(=O)C(C)C(=O)NCc1ccc(C(F)(F)F)cc1)C(N)=O` (stereo not given), the TGI in the test with CCRF-CEM leukemia, in the test on HL-60(TB) leukemia, in the test on RPMI-8226 leukemia, in the test with SW-620 colon, with HOP-92 NSCLC and in the test on OVCAR-5 ovarian was above 100 µM each time.

For the molecule `NCCCn1c2c(c3ccc([N+](=O)[O-])cc3c1=O)C(=O)c1cc3c(cc1-2)OCO3`, the GI50 in the test with TK-10 renal is 1.83 µM; in the test on HOP-62 NSCLC, 1.43 µM; in the test on CCRF-CEM leukemia, 0.0164 µM; with HL-60(TB) leukemia it was below 0.0155 µM; in the test with RPMI-8226 leukemia, below 0.017 µM; in the test on HOP-92 NSCLC, 2.6 µM. The TGI in the test with TK-10 renal is 4.98 µM; with HOP-62 NSCLC, above 100 µM; in the test with CCRF-CEM leukemia, above 100 µM; with RPMI-8226 leukemia, 2.14 µM; with HOP-92 NSCLC, 11.1 µM.
